Reference: patent US20120289501A1, “Benzene-fused 6-membered oxygen-containing heterocyclic derivatives of bicyclic heteroaryls” (NOVARTIS AG, priority 2009, published 2012)

Each molecule was assayed against IGF1R (Homo sapiens, UniProt P08069) (assay: Cellular IGF-1R assay: inhibition of IGF1R phosphorylation in transduced Hek293 cells, capture ELISA (MSD)).
Format: cell-based
Design: Hek293 cells transduced with the corresponding receptors; expressed in transfected cells; host or cells: Hek293 (Hek293-IGF1R)
In short: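 Serum-starved Hek293 cells transduced with IGF1R or InsR were pre-incubated 1 h with 3-fold dilutions from 10 μM (0.1% DMSO), then stimulated 10 min with 1.0 ng/μL IGF or 5.0 ng/μL insulin. pTyr1135/1136 (pINSR Tyr1150/1151) was read by MSD capture ELISA, normalised to stimulated vs unstimulated window; IC50 from 4-parameter fit.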

IGF1R, sequence (P08069 31-1367): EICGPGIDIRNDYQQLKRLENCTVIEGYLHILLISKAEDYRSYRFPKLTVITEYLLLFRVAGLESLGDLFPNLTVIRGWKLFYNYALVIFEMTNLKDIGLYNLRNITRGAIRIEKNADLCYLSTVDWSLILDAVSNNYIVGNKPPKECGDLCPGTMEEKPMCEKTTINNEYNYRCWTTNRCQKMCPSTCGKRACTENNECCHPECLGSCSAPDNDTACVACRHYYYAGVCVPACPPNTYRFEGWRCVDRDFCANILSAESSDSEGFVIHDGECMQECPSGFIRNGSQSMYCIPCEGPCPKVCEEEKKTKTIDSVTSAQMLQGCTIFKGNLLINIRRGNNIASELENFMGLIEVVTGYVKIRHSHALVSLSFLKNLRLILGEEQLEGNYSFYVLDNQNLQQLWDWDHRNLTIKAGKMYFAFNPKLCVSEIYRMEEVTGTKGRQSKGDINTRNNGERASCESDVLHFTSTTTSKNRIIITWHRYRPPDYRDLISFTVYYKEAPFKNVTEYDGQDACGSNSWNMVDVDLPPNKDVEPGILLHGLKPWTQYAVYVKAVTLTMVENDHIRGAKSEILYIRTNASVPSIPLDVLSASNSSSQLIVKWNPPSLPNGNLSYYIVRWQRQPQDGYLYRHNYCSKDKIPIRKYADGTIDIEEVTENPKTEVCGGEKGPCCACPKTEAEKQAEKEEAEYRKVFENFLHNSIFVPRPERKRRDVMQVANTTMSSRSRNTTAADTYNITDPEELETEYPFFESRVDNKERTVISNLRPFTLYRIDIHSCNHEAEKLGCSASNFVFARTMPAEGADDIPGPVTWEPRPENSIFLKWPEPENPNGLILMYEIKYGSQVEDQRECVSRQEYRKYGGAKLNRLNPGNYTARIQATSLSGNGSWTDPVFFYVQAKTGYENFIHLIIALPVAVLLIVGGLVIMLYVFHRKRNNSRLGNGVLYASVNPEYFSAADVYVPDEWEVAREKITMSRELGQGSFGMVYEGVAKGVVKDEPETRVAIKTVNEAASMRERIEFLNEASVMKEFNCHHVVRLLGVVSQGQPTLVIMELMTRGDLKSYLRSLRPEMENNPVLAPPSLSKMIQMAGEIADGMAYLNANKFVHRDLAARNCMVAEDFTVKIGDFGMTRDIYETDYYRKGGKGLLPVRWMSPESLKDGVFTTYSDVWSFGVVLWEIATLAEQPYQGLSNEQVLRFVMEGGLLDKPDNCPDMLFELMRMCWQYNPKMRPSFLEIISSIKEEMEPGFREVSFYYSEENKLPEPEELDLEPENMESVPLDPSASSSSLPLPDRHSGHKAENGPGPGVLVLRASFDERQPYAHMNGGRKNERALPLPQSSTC

Compound | IC50 [µM]
CC(=O)NC[C@H]1C[C@@H](n2cc(-c3ccc4c(c3)OC(c3ccccc3)CC4)c3c(N)ncnc32)C1 (mixture of isomers) [Example 16, (R,S)—N-{cis-3-[4-Amino-5-(2-phenyl-chroman-7-yl)-pyrrolo[2,3-d]pyrimidin-7-yl]-cyclobutylmethyl}-acetamide] | 0.022
Nc1ncnc2c1c(-c1ccc3c(c1)OC(c1ccccc1)C=C3)cn2[C@H]1C[C@@H](CN2CCS(=O)(=O)CC2)C1 (mixture of isomers) [Example 21, (R,S)-7-[cis-3-(1,1-Dioxo-1-thiomorpholin-4-ylmethyl)-cyclobutyl]-5-(2-phenyl-2H-chromen-7-yl)-7H-pyrrolo[2,3-d]pyrimidin-4-ylamine] | 0.009
CC(=O)N1CCN([C@H]2C[C@@H](n3cc(-c4ccc5c(c4)OC(c4ccccc4)CC5)c4c(N)ncnc43)C2)CC1 (relative stereo) [Example 38, 1-(4-{cis-3-[4-Amino-5-(2-phenyl-chroman-7-yl)-pyrrolo[2,3-d]pyrimidin-7-yl]-cyclobutyl}-piperazin-1-yl)-ethanone] | 0.011
Nc1ncnc2c1c(-c1ccc3c(c1)OC(c1ccccc1)CC3)cn2C1CC(O)(CO)C1 (single isomer, unassigned) [Example 26] | 0.027 to 0.106
